# Laboratory results published in PubChem BioAssay (NCI).
# “And” between values parts separate entries of the source, which are not always exact repeats. Equal entries are not always repeated.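 Compound exposure: 48 hours, 5 concentrations, 96-well plates. GI50 marks 50% less growth. At the TGI there is no net growth.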
# Tests used:
# Test in all cases: NCI anticancer screen, dose series, 48 h
# [1] = test system: RPMI-8226 leukemia
# [2] = test system: HOP-92 NSCLC
# [3] = test system: ACHN renal
# [4] = test system: SK-OV-3 ovarian
# [5] = test system: HOP-62 NSCLC
# [6] = test system: HL-60(TB) leukemia
# [7] = test system: KM12 colon
# [8] = test system: COLO 205 colon
# [9] = test system: HS 578T breast
# [10] = test system: HCC-2998 colon
SMILES,GI50 [1] [µM],TGI [1],GI50 [2] [µM],TGI [2] [µM],GI50 [3] [µM],TGI [3] [µM],GI50 [4] [µM],TGI [4] [µM],GI50 [5] [µM],TGI [5] [µM],GI50 [6] [µM],TGI [6] [µM],GI50 [7] [µM],TGI [7] [µM],GI50 [8] [µM],TGI [8],GI50 [9] [µM],TGI [9] [µM],GI50 [10] [µM],TGI [10] [µM]
NC(=O)c1ccc2c(c1)-c1nc-2nc2[n-]c(nc3nc(nc4[n-]c(n1)c1ccc(C(N)=O)cc41)-c1ccc(C(N)=O)cc1-3)c1ccc(C(N)=O)cc21.[Co+2],> 50,> 50 µM,> 50,> 50,> 50,> 50,> 50,> 50,> 50,> 50,7.12,> 50,> 50,> 50,> 50,> 50 µM,–,–,–,–
CCN(CC)c1ccc(/C=C/C(=O)c2ccc(Nc3nc(Nc4ccccc4)nc(Nc4ccccc4)n3)cc2)cc1,3.26,> 100 µM,0.0316,4.84,6.1,> 100,10.6,> 100,2.55,28.1,18,> 100,1.42,65.1,1.17,21.9 µM,4.04,69.5,–,–
NC(N)=N/N=C/c1c(-c2ccsc2)nc2n1CCS2,31.9,> 100 µM,–,–,18.5,46,35.4,> 100,19.8,52.8,–,–,17.1,43.1,19.8,48.5 µM,34.9,> 100,16,31.4
CC(C)(CN1C(=O)C(Cl)=C(Cl)C1=O)CN1C(=O)C(Cl)=C(Cl)C1=O,–,4.96 µM,–,18.1,–,21.7,–,> 58.9,–,45.6,–,2.84,–,57.4,–,8.66 µM,–,–,–,39.4
O=C(O/N=C1\CCCC\C1=C/c1ccccc1)c1ccc([N+](=O)[O-])cc1,–,> 100 µM,–,> 100,–,> 100,–,> 100,–,> 100,–,> 100,–,–,–,> 100 µM,–,–,–,> 100
C[C@H]1CC[P+](Cc2ccccc2)(c2ccccc2)C1 (stereo partly specified),–,> 100 µM,–,–,–,> 100,–,> 100,–,> 100,–,> 100,–,> 100,–,> 100 µM,–,–,–,> 100
O=S1(=O)N2CN3CN(C2)CN1C3,33.7,56.6 µM and 124 µM,–,–,–,283,–,868,–,624,–,62.8,–,306,–,> 31.6 µM and 73.8 µM,–,–,–,571
C[C@@]1([C@H](OC(=O)c2ccccc2)C(N)=O)CO1,26.2,> 100 µM,14.8,42.1,10.5,34.3,28.3,66,21.8,64.9,–,–,33.4,> 100,22.5,43 µM,34.4,92.7,20.5,40.3
Cn1cc(/C=C\[N+](=O)[O-])c2ccccc21,16.1,53.4 µM,30.6,> 100,> 100,> 100,> 100,> 100,> 100,> 100,–,–,34.9,> 100,42.3,> 100 µM,19.8,50.5,33.2,> 100
CCOC(=O)CSc1cc(Cl)c(C)cc1S(=O)(=O)/N=C(/N=C/c1ccc([N+](=O)[O-])s1)NNC,36.7,> 100 µM,13.2,54.6,17,39.9,24.3,67.1,13.3,31.3,21.7,53.7,18.5,42.2,16,34.8 µM,28,76.7,–,–
O=C(c1ccc(O)cc1O)C1C(c2ccc(O)cc2)OC(c2ccc(O)cc2)C1C(=O)c1ccc(O)cc1O (stereo unspecified),–,–,–,–,–,63.1,–,–,–,22.9,–,39.4,–,> 100,–,–,–,–,–,33.3
CCCNC(=O)Nc1c([N+](=O)[O-])cc(C(F)(F)F)cc1[N+](=O)[O-],–,> 100 µM,–,> 100,–,> 100,–,> 100,–,> 100,–,82.7,–,> 100,–,–,–,–,–,–
Cc1ccccc1N=Nc1c(O)ccc2ccccc12,–,> 100 µM,–,> 100,–,> 100,–,> 100,–,> 100,–,> 100,–,> 100,–,> 100 µM,–,> 100,–,–
Nc1ccc2n[se]nc2c1,–,> 100 µM,–,–,–,> 100,–,> 100,–,> 100,–,> 100,–,> 100,–,–,–,–,–,> 100
Nc1nnc2c(-c3ccccc3)[nH]nc2n1,–,> 100 µM,–,63.6,–,> 100,–,–,–,–,–,> 100,–,> 100,–,> 100 µM,–,–,–,> 100
Cc1ccc(NC(=O)CCc2nc(=S)[nH][nH]2)cc1,–,> 100 µM,–,> 100,–,> 100,–,> 100,–,> 100,–,> 100,–,> 100,–,> 100 µM,–,–,–,–
COc1cc(/C=C/C(=O)c2cccc(-n3cc(-c4cc(OC)c(OC)c(OC)c4)[nH]c3=O)c2)cc(OC)c1OC,0.238,0.733 µM,–,–,1.74,3.3,5.12,> 100,3.08,8.74,0.922,6.39,1.12,2.46,1.52,3.13 µM,> 100,> 100,1.92,3.43
CC1(C)CCC(Sc2ccccc2)O1 (stereo unspecified),–,> 100 µM,–,> 100,–,> 100,–,> 100,–,> 100,–,> 100,–,> 100,–,> 100 µM,–,–,–,> 100
C/C(=N\O)c1ccc2ccc3ccccc3c2c1,–,> 100 µM,–,–,–,> 100,–,> 100,–,> 100,–,66.6,–,45,–,76.6 µM,–,80.6,–,–
